Laboratory results published in ChEMBL document CHEMBL1145274, “The evaluation of 2,8-disubstituted benzoxazinone derivatives as anti-inflammatory and anti-platelet aggregation agents” (Bioorg Med Chem Lett, 2005).

Tests used:
Format in all cases: functional, organism-based
Homo sapiens [1] = organism: Homo sapiens; experiment: Inhibitory concentration for anti-platelet aggregation induced by collagen at 10 ug/mL concentration
Homo sapiens [2] = organism: Homo sapiens; experiment: Inhibitory concentration for anti-platelet aggregation induced by thrombin at 0.1 U/mL concentration
Homo sapiens [3] = organism: Homo sapiens; experiment: Inhibitory concentration for anti-platelet aggregation induced by arachidonic acid at 100 uM concentration
Homo sapiens [4] = organism: Homo sapiens; experiment: Inhibitory concentration for anti-platelet aggregation induced by platelet activating factor at 2 ng/mL concentration
Homo sapiens [5] = organism: Homo sapiens; experiment: Inhibitory concentration against superoxide anion (O2-) generation in human neutrophils induced by FMLP (formyl-Met-Leu-Phe) and […](phorbol myristate acetate)
Homo sapiens [6] = organism: Homo sapiens; experiment: Inhibitory concentration against neutrophil elastase release induced by FMLP (formyl-Met-Leu-Phe)

IC50 (Homo sapiens [1]) | IC50 (Homo sapiens [2]) | IC50 (Homo sapiens [3]) | IC50 (Homo sapiens [4]) | IC50 (Homo sapiens [5]) | IC50 (Homo sapiens [6]) | SMILES
> 100 µM | > 40 µM | > 100 µM | > 40 µM | 100 µM | 100 µM | CCc1nc2c(OC)cccc2c(=O)o1
34.3 µM | 67 µM | 8.4 µM | > 100 µM | 11.4 µM | 10.6 µM | COc1cccc2c(=O)oc(-c3ccccc3C)nc12
> 100 µM | > 100 µM | > 100 µM | > 100 µM | > 40 µM | > 40 µM | COc1cccc2c(=O)oc(C)nc12
39.4 µM | 7.2 µM | 8 µM | > 100 µM | 9.74 µM | – | COc1cccc2c(=O)oc(-c3ccccc3F)nc12
34.9 µM | > 100 µM | 34.6 µM | > 100 µM | – | – | CC(=O)Oc1ccccc1C(=O)O [ASPIRIN]
11.9 µM | 34.3 µM | 6.8 µM | > 100 µM | 10.8 µM | > 40 µM | Cc1cccc2c(=O)oc(-c3ccccc3F)nc12
21.1 µM | 4.4 µM | 13 µM | > 100 µM | 16.7 µM | – | COc1cccc2c(=O)oc(-c3ccccc3Br)nc12
35.5 µM | 6.9 µM | 11.8 µM | > 100 µM | 14.7 µM | – | COc1cccc2c(=O)oc(-c3ccccc3Cl)nc12
49.1 µM | 14.7 µM | 12.7 µM | 87.4 µM | > 40 µM | 6.03 µM | O=c1oc(-c2ccccc2F)nc2c(Cl)cccc12
> 100 µM | > 100 µM | > 100 µM | > 100 µM | > 40 µM | > 40 µM | CCCCc1nc2c(OC)cccc2c(=O)o1
> 100 µM | > 100 µM | > 100 µM | > 100 µM | 14 µM | 1.59 µM | COc1ccccc1-c1nc2c(OC)cccc2c(=O)o1
> 100 µM | > 100 µM | > 100 µM | > 100 µM | > 40 µM | – | COc1cccc2c(=O)oc(-c3ccc(Br)cc3)nc12
12.6 µM | 11.9 µM | 4.3 µM | > 100 µM | 29.9 µM | > 40 µM | Cc1cccc2c(=O)oc(-c3ccccc3Cl)nc12

Second part, the compound before the results:

SMILES | IC50 (Homo sapiens [1]) | IC50 (Homo sapiens [2]) | IC50 (Homo sapiens [3]) | IC50 (Homo sapiens [4]) | IC50 (Homo sapiens [5]) | IC50 (Homo sapiens [6])
COc1ccccc1-c1nc2c(C)cccc2c(=O)o1 | 54.7 µM | > 100 µM | 36.6 µM | > 100 µM | 22.7 µM | 7.23 µM
c1ccc2c(c1)[I+]c1ccccc1-2 [DIPHENYLENEIODONIUM] | – | – | – | – | 0.46 µM | –
O=c1oc(-c2ccccc2Cl)nc2c(Cl)cccc12 | 30 µM | 6.6 µM | 6.1 µM | 69.5 µM | 8.66 µM | 1.89 µM
Cc1ccccc1-c1nc2c(C)cccc2c(=O)o1 | > 100 µM | > 100 µM | 19.3 µM | > 100 µM | 23.6 µM | > 40 µM
COc1ccccc1-c1nc2c(Cl)cccc2c(=O)o1 | 44.9 µM | 14.8 µM | 25.4 µM | 70.3 µM | 10 µM | 1.91 µM
Cc1cccc2c(=O)oc(-c3ccccc3Br)nc12 | 49.8 µM | 18.9 µM | 5.8 µM | 89.3 µM | 30.2 µM | > 40 µM
COc1cccc2c(=O)oc(-c3ccccc3)nc12 | 33.8 µM | 48.2 µM | 47.3 µM | > 100 µM | > 40 µM | > 40 µM
Cc1ccccc1-c1nc2c(Cl)cccc2c(=O)o1 | 63.3 µM | 36.3 µM | 13.8 µM | 91.9 µM | 17.5 µM | > 40 µM
COc1cccc2c(=O)oc(-c3ccc(Cl)cc3)nc12 | > 100 µM | > 100 µM | > 100 µM | > 100 µM | > 40 µM | –
O=c1oc(-c2ccccc2Br)nc2c(Cl)cccc12 | 47 µM | 7.1 µM | 10.2 µM | 87.5 µM | 6.56 µM | 1.69 µM
